Data on one molecule can be found in patent US20240408114A1, “METHODS FOR PREVENTING AND TREATING ACUTE KIDNEY INJURY” (The Johns Hopkins University, priority 2021, published 2024).

Assay [1] has as its system splenic T cells. The assay can be described thus: Splenic T cell phenotypes in post-IRI mice. Type of assay: in vivo, mouse. The settings on record: vs vehicle. How it is done: T cell proliferation assessed with Ki67 expression was reduced in CD4^+ and CD8^+ T cells from JHU083 treated post-ischemic kidneys (Ki67^+, CD4^+ T cells 58.7±2.9 vs 50.6±2.1%, P=0.035; CD8^+ T cells, 61.2±4.2% vs 48.4±4.1%, P=0.043) (FIG. 15). […] We also studied immunophenotypes of splenic T cells from post-IRI mice.
KMNCs were isolated according to our previously described Percoll density gradient protocol. Ascon et al., 2006. Briefly, decapsulated kidneys were immersed and incubated in collagenase D (2 mg/mL; Sigma-Aldrich) solution for 30 min at 37° C. Samples were strained through 70 µm cell strainer (BD Bioscience, Franklin Lakes, NJ), washed, and resuspended in 40% Percoll (GE Healthcare, Chicago, IL) followed by gentle overlaying onto 80% Percoll. After centrifugation at 1,500 g for 30 min in brake off mode at room temperature, KMNCs were collected from interface between 40% and 80% Percoll. […] Cells were counted on hemocytometer using trypan blue exclusion under a microscope.
Cells were washed once with phosphate buffered saline (PBS) and stained with viability dye Zombie NIR Fixable Viability (BioLegend, San Diego, CA) for 15 min at room temperature. […] Samples were analyzed by 4-laser Aurora spectral flow cytometer (Cytek, Fremont, CA). […]

Assay [2] has as its system cisplatin-induced AKI in mice. The assay can be described thus: Cisplatin-induced (nephrotoxic) AKI model: kidney function and histology. Type of assay: in vivo, mouse. How it is done:
Given the significant protective outcomes in ischemic AKI, we subsequently tested the effect of glutamine blockade on a nephrotoxic AKI model, which is another common etiology of clinical AKI. After pretreatment with JHU083 or vehicle, 25 mg/kg of cisplatin was injected intraperitoneally. T cells were isolated and studied after 72 h after cisplatin treatment (FIG. 16A).
Cisplatin (cis-diammineplatinum II dichloride; Sigma-Aldrich, St. Louis, MO) was freshly dissolved into 0.9% saline (1 mg/mL) on the day of injection. The dissolved solution was incubated in water bath at 40° C. for 10 min to achieve complete dissolution. A single 25 mg/kg dose of cisplatin was injected intraperitoneally.
Blood samples were obtained at 0, 24, 48, and 72 h after IRI or cisplatin injection through tail vein collection. Plasma creatinine concentration was measured by Cobas Mira Plus automated analyzer system (Roche, Indianapolis, IN) with creatinine reagent (Pointe Scientific Inc, Canton, MI).
At 24 h after IRI and 72 h after cisplatin injection, mice were anesthetized with ketamine (130 mg/kg; VetOne, Boise, ID) and xylazine (7 mg/kg; Akorn) intraperitoneal injection. After exsanguination, kidneys were collected and fixed with 10% buffered formalin followed by paraffin embedding. Tissue sections were stained with hematoxylin and eosin. A renal pathologist scored necrotic tubules in a blinded fashion.
Glutamine antagonist, JHU083 was synthesized as previously described, Rais et al., 2016, and dissolved in 50 mM […] 4-(2-hydroxyethyl)-1-piperazineethanesulfonic acid (HEPES) buffered 0.9% saline. Aliquot stocks were stored at −80° C. and thawed right before injection. Before the IRI surgery or cisplatin injection, mice were administered 1.83 mg/kg JHU083 (equivalent to 1 mg/kg DON) or vehicle (50 mM HEPES buffered 0.9% saline) every other day via intraperitoneal injection. Following 4 consecutive dosages, mice underwent IRI surgery or cisplatin injection. The last additional dose was given at 24 h after IRI or cisplatin injection. […]

With `CCOC(=O)[C@H](CCC(=O)C=[N+]=[N-])NC(=O)[C@@H](N)CC(C)C` [JHU083], the “immunophenotypes of splenic CD4+ and CD8+ T cells” value in assay [1] is “increased naïve phenotypes with low CD44 and high CD62L expression”. In assay [2] (72 h after cisplatin 25 mg/kg i.p., JHU083 pretreatment, vehicle 2.28±0.34, P=0.016), the “plasma creatinine at 72 h” value was 1.17 ± 0.24 mg/dL. Moreover, the medullary necrotic tubules in assay [2] (72 h after cisplatin, vehicle 57.1±3.7, P<0.001) is given as 19.9±4.5%. Also, the cortical necrotic tubules in assay [2] (72 h after cisplatin, vehicle 58.1±4.9, P=0.243) amounted to 20.9±7.0%.
